Data on three compounds can be found in US10738049B2, “N-{3-[3-cyclopropyl-5-(2-fluoro-4-iodophenylamino)-6,8-dimethyl-2,4,7-trioxo-3,4,6,7-tetrahydro-2H-pyrido[4,3-D]pyrimidin-1-YL]-phenyl}-cyclopropanecarboxamide dimethyl sulfoxide solvate as an MEK1/2 inhibitor” (R-PHARM JOINT STOCK COMPANY (R-PHARM, JSC), priority 2016, dated 2020).

Molecules are shown by their SMILES. ≈ marks a conversion by molar mass, not a printed value. Where two headings read alike, the source gives them in different places.

Data set [1] in a line: Body weight and deaths during treatment in the xenograft study.
Description: The animals were treated with the test products for 21 days.
When average tumor size reached 100-200 mM^3 the animals were subdivided into experimental groups and treatment with the test drugs was started. The products were administered intragastrically daily, while the control group received the solvent.
Also, health and behavior of animals were monitored, numbers of lethal outcomes and tumor regressions were recorded: Regression=(Vini−Vfin)/Vi×100%,
Measurement of animal weights was carried out 3 times a week.
Data set [2] has as its system A375 human melanoma xenograft. Kind of data set: Study of efficiency in human melanoma xenograft model. It counts as in vivo, NMRI nude female mice. The following applies: for T/C / Vavg (average tumor volume): after 21 days of treatment. Here is the method: Study of efficiency in human melanoma xenograft model. The study was carried out in ProQinase GmbH Freiburg, Breisacher Str. 117, D-79106 Freiburg, GERMANY.
A375 human melanoma cells were cultivated in vials with DMEM medium with addition of 10% FBS in a humid atmosphere containing 95% of air and 5% of CO2 at 37° C. Cancer cells were passaged to animals after an adaptation period. For that end the cells were collected using TrypLE Express (Invitrogen), washed and suspended in sterile PBS to the final concentration of 3×10^7 cells/mL. This cell suspension was injected subcutaneously (SC) in mice left flanks (3×10^6 cells or 100 μL per mouse).
Measurement of subcutaneously implanted tumors was carried out 2 times a week starting from the day of cells introduction. Tumor volume (mm^3) was determined by the equation: V=L×W^2/2,
where L corresponds to maximum and W to minimum tumor diameter (mm). The measurements were carried out using a slide caliper.
The study included calculation of tumor growth inhibition values: T/C=Vexp/Vctrl×100%,
Vctrl=average tumor volume in the control group;
Vexp=average tumor volume in the experimental group.
Vini=initial tumor volume at the start of treatment;
Vfin=tumor volume at the end of treatment.

For data set [3] the following is noted: single-dose oral, mice; cited from earlier work.
In a further data set the target is T1, MEK1 (Homo sapiens, UniProt Q02750).
T1 construct: purchased Life Technologies
T1 sequence (Q02750 whole entry): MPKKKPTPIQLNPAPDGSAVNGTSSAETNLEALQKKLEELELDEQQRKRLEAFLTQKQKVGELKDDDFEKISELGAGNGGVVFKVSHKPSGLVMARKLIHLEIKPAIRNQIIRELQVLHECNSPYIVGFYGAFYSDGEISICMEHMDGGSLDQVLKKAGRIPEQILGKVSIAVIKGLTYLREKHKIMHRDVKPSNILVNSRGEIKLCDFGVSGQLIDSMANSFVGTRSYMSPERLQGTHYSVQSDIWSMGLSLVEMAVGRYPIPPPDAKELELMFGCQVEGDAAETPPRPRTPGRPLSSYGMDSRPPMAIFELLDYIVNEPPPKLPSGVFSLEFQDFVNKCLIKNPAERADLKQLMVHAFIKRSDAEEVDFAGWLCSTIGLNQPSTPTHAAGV
The data set can be described thus: MEK1 kinase activity, Z'-LYTE screening platform. It counts as biochemical. The following applies: 100 μM ATP, 1% DMSO.

Data set [4] in a line: Determination of thermodynamic solubility. It counts as physicochemical. The following applies: for solubility at 24 h: 25 °C, thermodynamic from solid. Here is the method: Use additional quantities of the substances until the solution becomes turbid. Incubate vials with the solution for 24 h at 25° C. with mixing to achieve equilibrium between saturated solution and precipitate. Upon equilibration filter 200 μL of the solution (in duplicate) through a 96-well filter plate (Millipore) to separate the precipitate. Determine concentrations of the compounds in the filtrate by spectrophotometry using standard calibration curve. Carry out measurement of optical absorption spectrum of the substance and plot calibration curve at the selected wavelength (usually corresponding to the substance absorption maximum λmax). Calculate concentration of the substance in the filtrate (i.e., solubility) by the following equation: Solubility=(ODλmax filtrate−ODλmax blank)/Slope×1.67×Filtrate dilution,
ODλmax filtrate=absorbance of the filtrate:
ODλmax blank=absorbance of the blank solution without the substance;
Slope=slope of the calibration curve;
1.67=dilution factor for the filtrate in acetonitrile;
Filtrate dilution=dilution factor for the filtrate in the buffer.

For data set [5] the following is noted: cited from earlier work.
Setting [6] is: 3.0 mg/kg intragastrically daily.
The mark [7] stands for this setting: 0.3 mg/kg intragastrically daily.
[8] abbreviates: 1.0 mg/kg intragastrically daily.
Setting [9] is: 10.0 mg/kg intragastrically daily.
The mark [10] stands for this setting: 4% dimethyl sulfoxide and 96% corn oil, oil or lipid, 4% dimethyl sulfoxide, 96% corn oil, read-out: Solubility in a mixture of 4% sulfoxide and 96% corn oil.
[11] abbreviates: dimethyl sulfoxide, organic solvent or mixture, read-out: Solubility in dimethyl sulfoxide.
The mark [12] stands for this setting: water, water, read-out: Solubility in water.

Description for MEK1: Assay. The substances were tested for the effect on MEK1 kinase activity using Z′-LYTE screening platform (Life Technologies). Concentration of DMSO in the reaction mixture was 1%. Dilute 100 nL of 100-fold sinks of the substances under study in 100% DMSO in 2.4 μL of kinase buffer (50 mM of HEPES pH 7.5, 0.01% BRIJ-35, 10 mM of mgCl2, 1 mM of EGTA) and add to 5 μL of 2-fold Substrate/Kinase mixture (MEK1/inactivated MARK1 (ERK2)/Ser/Thr03, final content 0.08-0.31 ng of MEK1, 105 ng of inactivated MARK1 (ERK2), and 2 μM of Ser/Thr03) in 384-well plate (black, small-volume manufactured by Corning, κaT. #3676). Pre-incubate the substances with kinases for 10 min at ambient temperature. After that add 2.5 μL of 4-fold ATP solution to start the reaction (final concentration of ATP in the reaction mixture is 100 μM). After 30 sec of incubation on a shaker incubate the reaction for 60 min at ambient temperature. Then add 5 μL of Reagent B (Life Technologies) diluted as 1:1024 and incubate for 60 min more at ambient temperature. Measure fluorescence with excitation at 400 nm and emission at 445 nm and 520 nM.
Calculate % phosphorylation as follows:
Calculate % inhibition as follows:
C100%=average coumarin emission signal, 100% phosphorylation control;
C0%=average coumarin emission signal, 0% phosphorylation control;
F100%=average fluorescein emission signal, 100% phosphorylation control; […]

On to `CC(=O)Nc1cccc(-n2c(=O)n(C3CC3)c(=O)c3c(Nc4ccc(I)cc4F)n(C)c(=O)c(C)c32)c1` [Mekinist, Trametinib dimethyl sulfoxide, reference compound], for which the Animal deaths entry in data set [1] (3 mg/kg intragastric for 9 days) was “two”. For the same compound, the “Animals with tumor regression” value in data set [2] (3 mg/kg intragastric) was 100 % animals. Also, in data set [2] (setting [6]), the T/C was 1.0% and the “Vavg (average tumor volume)” value was 21.1 mm^3. In addition, the LD50 in data set [3] is on record as more than 2000 mg/kg.
As for `Cc1c(=O)n(C)c(Nc2ccc(I)cc2F)c2c(=O)n(C3CC3)c(=O)n(-c3cccc(NC(=O)C4CC4)c3)c12` [Compound of formula 1, N-{3-[3-cyclopropyl-5-(2-fluoro-4-iodophenylamino)-6,8-dimethyl-2,4,7-trioxo-3,4,6,7-tetrahydro-2H-pyrido[4,3-d]pyrimidin-1-yl]-phenyl}-cyclopropanecarboxamide dimethyl sulfoxide solvate], the “Animal body weight loss as compared to the treatment start date” value in data set [1] (10 mg/kg, throughout the study) was “not more than 20%”. The Animal deaths result in data set [1] (any of the doses studied (up to 10 mg/kg)) is on record as “did not cause animal deaths”. Moreover, the “Effect on tumor growth” value in data set [2] (0.3 mg/kg intragastric) was “no effect on tumor growth”. Moreover, the T/C in data set [2] (setting [7]) came out at 39.5%; in data set [2] (setting [8]), 6.7%; in data set [2] (setting [6]), 4.0%; in data set [2] (setting [9]), 1.2%. For the same compound, the “Vavg (average tumor volume)” value was 834.3 mm^3 in data set [2] (setting [7]), 140.5 mm^3 in data set [2] (setting [8]), 84.5 mm^3 in data set [2] (setting [6]) and 26.1 mm^3 in data set [2] (setting [9]). Besides, the “Animals with tumor regression” value in data set [2] (1 mg/kg) is listed as “three of eight”; in data set [2] (3 mg/kg), 7/8; in data set [2] (10 mg/kg), 8/8. At MEK1, this compound returned an IC50 of 8.02 nM. The values for the solubility at 24 h in data set [4] (setting [10]), in data set [4] (setting [11]) and in data set [4] (setting [12]) were 7000 µg/mL, 47000 µg/mL and less than 1000 µg/mL, respectively. For the same compound, the “Solubility in dimethyl sulfoxide relative to Trametinib” value in data set [4] (dimethyl sulfoxide, ratio to Trametinib) was “more than 2 times”.
As for `CC(=O)Nc1cccc(-n2c(=O)n(C3CC3)c(=O)c3c(Nc4ccc(I)cc4F)n(C)c(=O)c(C)c32)c1` [Trametinib, reference compound], the values for the solubility at 24 h in data set [4] (setting [10]), in data set [4] (setting [11]) and in data set [4] (setting [12]) were 3000 µg/mL (≈ 4.87 mM), 22000 µg/mL (≈ 35.7 mM) and less than 1000 µg/mL, respectively. In data set [5] (between pH=2 and pH=8), the “Solubility in aqueous media” value is “practically insoluble”. Further, the “Solubility in organic solvents” value in data set [5] (organic solvents including highly polar ones) is “very slightly soluble”.

What is called T/C is the result in the treated group divided by that in the control group, in per cent. As a reminder, the LD50 is the dose expected to kill half of the subjects tested. As a reminder, the IC50 is the concentration that inhibits the measured activity by half. Low readings indicate greater potency in that assay, high ones weaker potency in that assay. The term solubility denotes the concentration that dissolves in the medium under given conditions.
